One may read the Ki as a dissociation constant, usually derived from enzyme kinetics or from competition with a known ligand. Low values mean a stronger hold on the target, high ones a looser hold on the target.

From BindingDB's records for doi:10.1021/jm00053a022 (University of Paris, 1993) come the findings set out here.

The target in assay [1] is Gastrin/cholecystokinin type B receptor (Cavia porcellus). Put plainly: Displacement of [3H]pCCK-8 from cholecystokinin type B receptor in guinea pig brain membrane. On the technique in general: In a radioligand displacement assay an active substance lowers the binding of a labelled ligand.
The target is the same in assay [2]. Described as above. This is another data set of the same source.

Non-standard residues stand in square brackets, D forms with d. Residues, ends and D or L forms follow the SMILES beside them. *: point of attachment. NMeW = CN[C@@H](Cc1c[nH]c2ccccc12)C(=O)O; 1Nal = N[C@@H](Cc1cccc2ccccc12)C(=O)O; Chg = N[C@H](C(=O)O)C1CCCCC1; Phg = N[C@H](C(=O)O)c1ccccc1; OtBu = CC(C)(C)O*

In the case of `CN(C)[C@@H](Cc1cccc2ccccc12)C(=O)N[C@@H](CC(=O)O)C(=O)N[C@H](C(=O)N[C@@H](Cc1c[nH]c2ccccc12)C(=O)OC(C)(C)C)c1ccccc1` [N-{[1-tert-Butoxycarbonyl-2-(1H-indol-3-yl)-ethylcarbamoyl]-phenyl-methyl}-3-(2-dimethylamino-3-naphthalen-1-yl-propionylamino)-succinamic acid], the Ki in assay [1] was 0.039 µM.

`CN(C(=O)[C@@H](NC(=O)[C@H](CC(=O)O)NC(=O)[C@@H](N)Cc1cccc2ccccc12)C1CCCCC1)[C@@H](Cc1c[nH]c2ccccc12)C(=O)OC(C)(C)C` [3-(2-Amino-3-naphthalen-1-yl-propionylamino)-N-({[1-tert-butoxycarbonyl-2-(1H-indol-3-yl)-ethyl]-methyl-carbamoyl}-cyclohexyl-methyl)-succinamic acid] (H-[1Nal]D[Chg][NMeW]-OtBu): the affinity in assay [1], expressed as Ki, was 0.14 µM.

In turn, `CN(C)[C@@H](Cc1cccc2ccccc12)C(=O)N[C@@H](CC(=O)O)C(=O)N[C@H](C(=O)N[C@@H](Cc1c[nH]c2ccccc12)C(=O)OC(C)(C)C)C1CCCCC1` [N-{[1-tert-Butoxycarbonyl-2-(1H-indol-3-yl)-ethylcarbamoyl]-cyclohexyl-methyl}-3-(2-dimethylamino-3-naphthalen-1-yl-propionylamino)-succinamic acid] yielded a Ki in assay [1] of 0.074 µM.

As for `CCCC[C@H](NC(=O)[C@H](CC(=O)O)NC(=O)[C@@H](N)Cc1ccccc1)C(=O)N[C@H](Cc1c[nH]c2ccccc12)C(=O)OC(C)(C)C` [3-(2-Amino-3-phenyl-propionylamino)-N-{1-[1-tert-butoxycarbonyl-2-(1H-indol-3-yl)-ethylcarbamoyl]-pentyl}-succinamic acid], the Ki in assay [1] and in assay [2] was 0.16 µM throughout.

`CCCC[C@H](NC(=O)[C@H](CC(=O)O)NC(=O)[C@H](Cc1cccc2ccccc12)N(C)C)C(=O)N(C)[C@@H](Cc1c[nH]c2ccccc12)C(=O)OC(C)(C)C` [N-(1-{[1-tert-Butoxycarbonyl-2-(1H-indol-3-yl)-ethyl]-methyl-carbamoyl}-pentyl)-3-(2-dimethylamino-3-naphthalen-1-yl-propionylamino)-succinamic acid]: the Ki in assay [1] was 0.081 µM.

With `CN(C(=O)[C@@H](NC(=O)[C@H](CC(=O)O)NC(=O)[C@@H](N)Cc1cccc2ccccc12)c1ccccc1)[C@@H](Cc1c[nH]c2ccccc12)C(=O)OC(C)(C)C` [3-(2-Amino-3-naphthalen-1-yl-propionylamino)-N-({[1-tert-butoxycarbonyl-2-(1H-indol-3-yl)-ethyl]-methyl-carbamoyl}-phenyl-methyl)-succinamic acid] (H-[1Nal]D[Phg][NMeW]-OtBu), the affinity in assay [1] corresponds to a Ki of 0.17 µM.

On to `CC(C)(C)OC(=O)[C@H](Cc1c[nH]c2ccccc12)NC(=O)[C@H](Cc1ccccc1)NC(=O)[C@H](CC(=O)O)NC(=O)[C@@H](N)Cc1cccc2ccccc12` [3-(2-Amino-3-naphthalen-1-yl-propionylamino)-N-{1-[1-tert-butoxycarbonyl-2-(1H-indol-3-yl)-ethylcarbamoyl]-2-phenyl-ethyl}-succinamic acid] (H-[1Nal]DFW-OtBu), for which, in assay [1], the Ki is 0.071 µM.
